Experimental data as given in PMC7912796, “Design, Synthesis, Anticancer Activity, and Solid Lipid Nanoparticle Formulation of Indole- and Benzimidazole-Based Compounds as Pro-Apoptotic Agents Targeting Bcl-2 Protein” (Pharmaceuticals, 2021).

Experiments:
[1] = tested on: MDA-MB-231/breast cancer cell line; assay: Cell cycle analysis, propidium iodide flow cytometry; type: cell-based, human; conditions: 13 µM, 48 h
Text: Using flow cytometry, apoptosis rate analysis was proceeded through staining the cell surface-translocating phosphatidylserine with Annexin-V fluorescent conjugate, the calcium-dependent phospholipid binding protein [32]. However, cell cycle analysis was achieved using propidium iodine fluorescent dye to stoichiometrically stain cell DNA contents allowing quantitation and identification of all cell phase rates; G0-G1, S, G2/M, and pre-G1 [33, 34]. […] For identifying the mode of cell death promoted by 8b within MDA-MB-231/breast cancer cells, apoptosis rate analysis was performed following 48 h exposure time. […] Moreover, the average proportion of Annexin-V stained positive cells (total apoptotic cells) elevated from 1.72% within untreated cells to 18.93% in treated ones (p < 0.001). […] The above provided findings are supported by the previous cell cycle analysis confirming the potentiality of 8b as promising anticancer agent.
Apoptotic assay and cell cycle analysis were proceeded according to previous literatures. […] Following incubation, MDA-MB-231 cells were trypsinized, harvested, and fixed according to information cited within Annexin® V-FITC Detection Kit (Cat.#: K101-25, BioVision^TM, Milpitas, CA, USA), for quantifying cell’s DNA contents being treated with 8b relative to control sample using propidium iodide stain (Cat.#: ab139418; Abcam^TM, Cambridge, MA, USA). […]

[2] = tested on: MDA-MB-231/breast cancer cell line; assay: DNA fragmentation assay; type: cell-based, human; conditions: 13 µM, 48 h and 72 h, agarose gel ladder
Experimental: In order to delineate the mechanistic aspects of MDA-MB-231/breast cancer cell death mediated by 8b, the DNA fragmentation assay was conducted as being highly characteristic for apoptosis. […] A typical ladder pattern of internucleosomal fragmentation was observed from cell homogenates within both incubation periods (Figure 8). Such findings further confirm the significant activity of 8b as a potent inducer of apoptosis.
DNA isolation was performed through planting MDA-MB-231/breast cells at 0.16x10^6 density, prior to incubation at 37 °C/humidified 5% CO2 overnight. Following 48 h exposure time, cells were harvested, washed and lysed via DNA-extraction buffer at 37 °C overnight. The lysate was incubated after that with 100 μg/mL […] (Cat.#: 9097.1; Carl-Roth^TM, Karlsruhe, Germany) at 37 °C for 2 h, which was followed by three extraction processes using phenol:CHCl3 (1:1 v/v) (Bioflux^TM, Selangor, Malaysia). A consequent re-extraction was done using CHCl3 and then the organic solvent was centrifuged for 5 min at 12,000 rpm within 4 °C conditions. Extracted DNA was precipitated via ice-cold 3 M sodium acetate and absolute ethanol for 1 h at –20 °C, which was then proceeded through centrifugation (15 min—at 12,000 rpm—4 °C). […]

[3] = In-vitro drug release, dialysis method; type: physicochemical; conditions: over 48 h, PBS pH 7.4, 37 °C, dialysis bag
Experimental: The in-vitro drug-release behavior of SLNs was determined through the dialysis method. The release of drug from SLNs was done using phosphate buffer saline (pH 7.4) as dissolution medium. An accurate amount of SLNs (equivalent to 5 mg drug) was taken and placed within the dialysis bag (MWCO: 12 kDa). The dialysis bag was closed from both ends and placed within 75 mL Phosphate Buffer Saline (pH 7.4) as dissolution medium. The analysis was conducted while maintaining the dissolution medium at 37 ± 1 °C and being stirred via magnetic stirrer at 100 rpm. Dissolution medium samples (2 mL) were withdrawn at pre-determined time intervals (0.5, 1, 2, 4, 8, 12, 24 and 48 h). Equal volumes of fresh dissolution medium were added to replace the withdrawn volumes for keeping sink condition. The experiment was done in triplicate and the amount of drug release was measured following the same procedure as in the entrapment efficiency section.

A549/lung adenocarcinoma = assay: Morphological assessment; type: cell-based, human; conditions: 0.1-100 µM (5-FU 100 µM), 48 h, phase-contrast microscope

- total released amount of drug [3]: 21.48 ± 1.17%
SMILES: CCCc1ccc(-c2nn(-c3ccccc3)cc2C=NNC(=O)c2cc3ccccc3[nH]2)cc1 [Compound 8b, N′-((1-phenyl-3-(4-propylphenyl)-1H-pyrazol-4-yl)methylene)-1H-indole-2-carbohydrazide]
- cell population at pre-G1 stage [1]: 1.72%
- cell population at G2/M stage ([1]; untreated 6.15%): 25.32%
- DNA fragmentation [2]: Significant DNA fragmentation
- cell morphology alterations (A549/lung adenocarcinoma): Comparable cell morphology changes
